Measurements taken from patent publication US4552868A, “14-Amino steroid derivatives, a process for the preparation thereof and method of use thereof” (Etablissements Nativelle S.A., priority 1982, dated 1985).

Assays:
cardiac contractility = assay: Toxicity versus increase in cardiac contractility in the anesthetized dog; type: in vivo
Source text: Similarly, the toxicity of the derivatives of the invention is reversible, that is, stopping their administration is sufficient to make problems observed using an electrocardiogram disappear.

membraneous ATPase = assay: Inhibition of membraneous ATPase; type: biochemical; conditions: read-out: ED50 (dose causing 50% inhibition of membraneous ATPase)
Source text: The results obtained using the derivatives of the invention described in Examples 2, 6 and 7 and ouabain and digoxin are shown in Table 2 below.
In Table 2, the ED50 value is the dose causing 50% inhibition of membraneous ATPase.

[1] = tested on: isolated guinea pig auricle; assay: Positive inotropic activity: increase in force of contraction on the isolated guinea pig auricle; conditions: Cavia porcellus, read-out: Range of contractions in relation to the control values; for activation at 2 µM: 2 × 10^-6 Moles/l; for activation at 6 µM: 6 × 10^-6 Moles/l; for activation at 10 µM: 10^-5 Moles/l; for activation at 1 µM: 10^-6 Moles/l; for activation at 0.2 µM: 2 × 10^-7 Moles/l
Source text: Inotropic activity has been verified on the isolated guinea pig auricle under normal experimental conditions, by recording the range of contractions for various doses administered in relation to control values.
Range of contractions in relation to the control values

SMILES | increase in cardiac contractility without any signs of toxicity (cardiac contractility) | signs of toxicity (cardiac contractility; at 150% increase in cardiac contractility) | IC50 (membraneous ATPase) | activation at 2 µM [1] | activation at 6 µM [1] | activation at 10 µM [1] | activation at 1 µM [1] | activation at 0.2 µM [1] | increase in cardiac contractility at which toxic signs appear (cardiac contractility; same experimental conditions)
C[C@H](O)[C@H]1CC[C@]2(N)[C@@H]3CC[C@@H]4C[C@@H](O[C@@H]5O[C@@H](C)[C@H](O)[C@@H](O)[C@H]5O)CC[C@]4(C)[C@H]3CC[C@]12C [Example 6, 3-O-(α-L-rhamnopyranosyl) 14β-amino 5β-pregnane 3β,20α-diol] | 150% | without any signs of toxicity | 180 pM | 63% | 143% | 148% | 43% | – | –
C[C@@H]1O[C@@H](O[C@H]2CC[C@@]3(C)[C@H](CC[C@@H]4[C@@H]3CC[C@]3(C)[C@@H](CO)CC[C@]43N)C2)[C@H](O)[C@H](O)[C@H]1O [Example 2, 3-O-(α-L-rhamnopyranosyl) 14β-amino 21-nor 5β-pregnane 3β,20-diol] | – | – | 130 pM | – | – | – | – | – | –
C[C@@H]1O[C@@H](O[C@H]2CC[C@@]3(C)[C@H](CC[C@@H]4[C@@H]3CC[C@]3(C)[C@@H]([C@@H](C)O)CC[C@]43N)C2)[C@H](O)[C@H](O)[C@H]1O [Example 7, 3-O-(α-L-rhamnopyranosyl) 14β-amino 5β-pregnane 3β,20β-diol] | – | – | 70 pM | 178% | 233% | 206% | 97% | 50% | –
C[C@@H]1O[C@@H](O[C@H]2C[C@@H](O)[C@]3(CO)[C@H]4[C@H](O)C[C@]5(C)[C@@H](C6=CC(=O)OC6)CC[C@]5(O)[C@@H]4CC[C@]3(O)C2)[C@H](O)[C@H](O)[C@H]1O [ouabain, reference compound] | – | – | 3600 pM | – | – | – | – | – | –
C[C@H]1O[C@@H](O[C@H]2[C@@H](O)C[C@H](O[C@H]3[C@@H](O)C[C@H](O[C@H]4CC[C@@]5(C)[C@H](CC[C@@H]6[C@@H]5C[C@@H](O)[C@]5(C)[C@@H](C7=CC(=O)OC7)CC[C@]65O)C4)O[C@@H]3C)O[C@@H]2C)C[C@H](O)[C@@H]1O [digoxin, reference compound] | – | – | 5300 pM | 114% | 128% | 128% | 100% | 38% | approximately 50%
